Molecules are shown by their SMILES.

In ChEMBL document CHEMBL3396957, “Heteroatom insertion into 3,4-dihydro-1H-quinolin-2-ones leads to potent and selective inhibitors of human and rat aldosterone synthase” (Eur J Med Chem, 2015) one finds IC50 and inhibition data, which are given here for five compounds.

In data set [1] the target is T1, Cytochrome P450 11B1, mitochondrial (Homo sapiens, UniProt P15538).
T1 sequence (P15538 whole entry): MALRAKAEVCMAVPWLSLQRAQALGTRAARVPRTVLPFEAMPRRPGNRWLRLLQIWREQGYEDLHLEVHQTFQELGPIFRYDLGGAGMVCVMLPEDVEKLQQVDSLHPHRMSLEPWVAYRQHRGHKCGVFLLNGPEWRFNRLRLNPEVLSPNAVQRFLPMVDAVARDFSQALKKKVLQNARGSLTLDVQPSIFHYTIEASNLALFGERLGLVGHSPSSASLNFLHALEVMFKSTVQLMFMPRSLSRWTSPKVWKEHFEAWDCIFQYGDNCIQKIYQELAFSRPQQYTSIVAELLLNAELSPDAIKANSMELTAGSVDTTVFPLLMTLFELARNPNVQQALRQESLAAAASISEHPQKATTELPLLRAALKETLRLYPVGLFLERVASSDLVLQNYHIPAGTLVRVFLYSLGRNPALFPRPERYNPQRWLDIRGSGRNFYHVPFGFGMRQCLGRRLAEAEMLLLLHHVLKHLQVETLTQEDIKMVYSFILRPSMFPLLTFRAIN
The data set can be described thus: (§1) Inhibition of CYP11B1 […] cells using [3H]-11-deoxycorticosterone as substrate incubated for 1 hr prior to substrate addition measured after 25 mins by HPLC analysis. Type of data set: cell-based.

For data set [2], the target named is T2, CYP17 (Homo sapiens, UniProt P05093).
T2 sequence (P05093 whole entry): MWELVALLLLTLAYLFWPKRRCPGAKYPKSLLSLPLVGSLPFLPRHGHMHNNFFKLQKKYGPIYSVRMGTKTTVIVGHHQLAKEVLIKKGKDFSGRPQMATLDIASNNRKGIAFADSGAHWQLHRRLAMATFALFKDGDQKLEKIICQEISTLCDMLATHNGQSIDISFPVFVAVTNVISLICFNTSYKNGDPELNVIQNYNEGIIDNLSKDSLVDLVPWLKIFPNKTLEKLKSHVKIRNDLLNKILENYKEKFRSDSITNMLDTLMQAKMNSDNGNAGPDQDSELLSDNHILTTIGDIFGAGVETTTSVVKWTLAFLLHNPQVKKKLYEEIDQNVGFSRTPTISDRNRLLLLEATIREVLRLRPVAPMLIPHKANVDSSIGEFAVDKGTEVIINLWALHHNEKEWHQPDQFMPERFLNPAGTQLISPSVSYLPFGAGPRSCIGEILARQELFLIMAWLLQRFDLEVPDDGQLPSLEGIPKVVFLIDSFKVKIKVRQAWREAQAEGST
The data set can be described thus: Inhibition of human recombinant CYP17 expressed in Escherichia coli using progesterone as substrate at 2 uM. Conditions: probe progesterone.

Data set [3] has as its target T3, CYP19 (aromatase) (Homo sapiens, UniProt P11511).
T3 sequence (P11511 whole entry): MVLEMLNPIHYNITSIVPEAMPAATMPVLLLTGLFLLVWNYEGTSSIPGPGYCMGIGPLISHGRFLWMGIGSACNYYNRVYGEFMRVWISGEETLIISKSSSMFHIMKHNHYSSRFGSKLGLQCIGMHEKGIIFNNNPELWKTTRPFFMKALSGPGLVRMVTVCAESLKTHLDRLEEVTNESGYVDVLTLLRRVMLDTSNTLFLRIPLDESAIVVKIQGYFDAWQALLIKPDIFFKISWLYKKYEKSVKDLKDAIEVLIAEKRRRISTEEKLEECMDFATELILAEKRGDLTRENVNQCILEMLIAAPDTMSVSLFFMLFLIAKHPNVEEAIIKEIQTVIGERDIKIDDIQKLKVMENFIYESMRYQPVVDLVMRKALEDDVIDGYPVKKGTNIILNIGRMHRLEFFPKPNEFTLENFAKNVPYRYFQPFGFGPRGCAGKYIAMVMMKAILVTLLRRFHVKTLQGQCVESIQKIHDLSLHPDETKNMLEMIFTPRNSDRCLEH
The data set can be described thus: Inhibition of human recombinant CYP19 using [1beta-3H]androstenedione as substrate at 500 nM. Particulars: recombinant CYP19, probe [1beta-3H]androstenedione.

In data set [4] the target is T4, Cytochrome P450 11B2, mitochondrial (Homo sapiens, UniProt P19099).
T4 sequence (P19099 whole entry): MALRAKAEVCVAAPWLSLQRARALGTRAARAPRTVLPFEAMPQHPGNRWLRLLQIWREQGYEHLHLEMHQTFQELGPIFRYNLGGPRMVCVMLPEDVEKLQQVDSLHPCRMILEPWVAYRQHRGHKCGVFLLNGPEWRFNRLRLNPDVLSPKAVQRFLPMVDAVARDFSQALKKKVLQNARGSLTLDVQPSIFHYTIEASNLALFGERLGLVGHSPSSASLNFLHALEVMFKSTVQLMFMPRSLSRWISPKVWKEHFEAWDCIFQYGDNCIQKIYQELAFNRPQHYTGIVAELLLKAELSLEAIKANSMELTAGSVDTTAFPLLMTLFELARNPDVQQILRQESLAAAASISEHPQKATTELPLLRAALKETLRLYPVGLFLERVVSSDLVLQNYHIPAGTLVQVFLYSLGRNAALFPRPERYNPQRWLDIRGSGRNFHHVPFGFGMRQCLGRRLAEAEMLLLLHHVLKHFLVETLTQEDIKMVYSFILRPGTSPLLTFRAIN
The data set can be described thus: Inhibition of CYP11B2 […] cells using [3H]-11-deoxycorticosterone as substrate incubated for 1 hr prior to substrate addition measured after 45 mins by HPLC analysis. Type of data set: cell-based.

The target of data set [5] is T4, Cytochrome P450 11B2, mitochondrial. Description: Inhibition of CYP11B2 […] cells using [3H]-11-deoxycorticosterone as substrate at 500 nM incubated for 1 hr prior to substrate addition measured after 45 mins by HPLC analysis. It is filed as cell-based. Conditions: 0.75 h.
Data set [6] deals with T5, CYP11B1 (Homo sapiens, UniProt P15538).
T5 sequence (P15538 whole entry): T1 sequence (P15538 whole entry)
The data set is described as §1. Type of data set: cell-based. Particulars: human, V79MZ cells expressing CYP11B1, probe [3H]-11-deoxycorticosterone.

Data set [7] has as its target T6, Cytochrome P450 11B2, mitochondrial (Rattus norvegicus, UniProt P30099).
T6 sequence (P30099 whole entry): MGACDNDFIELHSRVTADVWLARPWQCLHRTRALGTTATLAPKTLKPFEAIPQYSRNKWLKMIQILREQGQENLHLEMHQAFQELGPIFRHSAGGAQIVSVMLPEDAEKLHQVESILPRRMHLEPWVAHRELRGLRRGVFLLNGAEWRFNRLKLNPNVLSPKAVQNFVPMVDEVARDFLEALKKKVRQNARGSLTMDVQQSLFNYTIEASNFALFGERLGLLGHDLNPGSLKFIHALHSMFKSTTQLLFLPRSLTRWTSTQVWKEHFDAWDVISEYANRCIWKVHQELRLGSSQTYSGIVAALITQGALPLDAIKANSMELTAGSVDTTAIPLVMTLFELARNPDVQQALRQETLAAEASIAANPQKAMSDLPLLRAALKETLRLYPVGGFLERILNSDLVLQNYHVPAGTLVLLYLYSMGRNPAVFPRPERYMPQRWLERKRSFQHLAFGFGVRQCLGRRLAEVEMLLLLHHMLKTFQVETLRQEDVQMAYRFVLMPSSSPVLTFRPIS
The data set can be described thus: Inhibition of rat CYP11B2 using [3H]-11-deoxycorticosterone as substrate at 2 uM incubated for 1 hr prior to substrate addition measured after 7 hrs by HPLC analysis.

Data set [8] deals with T6, Cytochrome P450 11B2, mitochondrial. Description: Inhibition of rat CYP11B2 using [3H]-11-deoxycorticosterone as substrate at 0.5 uM incubated for 1 hr prior to substrate addition measured after 7 hrs by HPLC analysis. Particulars: read-out: INH.

Take `CN1C(=O)COc2cc(-c3cccnc3)ccc21`: the IC50 in data set [1] came to 776 nM; in data set [4], 11 nM. Further, in data set [2], the inhibition at 2 µM was less than 10%. Besides, the inhibition at 0.5 µM in data set [3] is 20%; in data set [5], 98%.
`O=C1NCc2cc(-c3cccnc3)ccc2N1`: the 50% inhibitory concentration (IC50) in data set [1] was determined as 120 nM; in data set [4], 228 nM. For the same compound, the inhibition at 0.5 µM in data set [5] was determined as 72%.
For the compound `O=C1CSc2cc(-c3cccnc3)ccc2N1`, the 50% inhibitory concentration (IC50) at 25 min in data set [6] turned out to be 525 nM. Moreover, 12 nM corresponded to half-maximal inhibition in data set [4] (IC50).
In the case of `O=C1CCc2cc(-c3cccnc3)ccc2N1`, the IC50 at 25 min in data set [6] amounted to 6750 nM. The inhibition at 2 µM is 20% in data set [2] and less than 5% in data set [7]. Further, in data set [3], the inhibition at 0.5 µM is 31%. In data set [4], the IC50 is 28 nM.
For `N#Cc1ccc(C2CCCc3cncn32)cc1` (stereo unspecified) [FADROZOLE], the inhibition at 0.5 µM in data set [8] stood at 67%.

As a reminder, the IC50 is the concentration needed to halve the response being measured. High values mean weaker potency in that assay, low ones greater potency in that assay.
